Experiments:
[1] = system: 253G1 hiPS cell-derived neurons; test: MEA measurement of drug response (number of spikes) of 253G1 hiPS cell-derived neurons; assay type: cell-based, human; settings: 4-AP final concentration 100 μM
Procedure: iPS cell-derived neurons (253G1 hiPS cell-derived neuron or XCL-1 NEURONS (XCell Science, catalog number XN-001-1V)) were seeded on the oriented PLGA fiber sheet as a cell scaffold at 13×10^5 cells/cm^2. 253G1 hiPS cell-derived neurons were cultured in N2B27 medium with or without 20% ACM, and the XCL-1 NEURONS are cultured in BrainPhys (registered trademark) Neuronal Medium (05792, STEMCELL TECHNOLOGIES) with or without 20% ACM in an incubator at 5% CO2 and 37° C. for 4 or 6 weeks. The fiber sheet was placed on an MEA probe (MED64 system, Alpha MED Scientific Inc.), and made the cells contact with the electrodes of MEA probe to measure neural activity (spikes). As a control, neurons were similarly seeded directly on a probe (electrodes) based on a conventional method, and cultured in an incubator at 5% CO2 and 37° C. for 4 or 6 weeks. The obtained results were compared with those given by a conventional method (direct seeding to a probe). A larger number of spikes were detected in 253G1 hiPS cell-derived neurons on the fiber sheet at 4-week culture (FIG. 7a). […] In the measurement system, 4-aminopyridine (4-AP), known to have a function of inhibiting various potassium channels in neurons and maintaining neuronal action potential, was added to the neurons cultured for 4 weeks at a final concentration of 100 μM, and then the spikes were measured. As a result, the number of spikes was increased both in the control group and in the fiber sheet group by the addition of 4-aminopyridine, and appropriate drug response was also confirmed (FIG. 7a).

[2] = system: iPS cell-derived neurons XCL-1 NEURONS; test: MEA measurement of drug response (spikes, bursts, synchronous bursts) of XCL-1 NEURONS on oriented PLGA fiber sheet; assay type: cell-based, human; settings: 4-AP final concentration 100 μM
Procedure: iPS cell-derived neurons (253G1 hiPS cell-derived neuron or XCL-1 NEURONS (XCell Science, catalog number XN-001-1V)) were seeded on the oriented PLGA fiber sheet as a cell scaffold at 13×10^5 cells/cm^2. 253G1 hiPS cell-derived neurons were cultured in N2B27 medium with or without 20% ACM, and the XCL-1 NEURONS are cultured in BrainPhys (registered trademark) Neuronal Medium (05792, STEMCELL TECHNOLOGIES) with or without 20% ACM in an incubator at 5% CO2 and 37° C. for 4 or 6 weeks. The fiber sheet was placed on an MEA probe (MED64 system, Alpha MED Scientific Inc.), and made the cells contact with the electrodes of MEA probe to measure neural activity (spikes). As a control, neurons were similarly seeded directly on a probe (electrodes) based on a conventional method, and cultured in an incubator at 5% CO2 and 37° C. for 4 or 6 weeks. The obtained results were compared with those given by a conventional method (direct seeding to a probe). A larger number of spikes were detected in 253G1 hiPS cell-derived neurons on the fiber sheet at 4-week culture (FIG. 7a). […] In the measurement system, 4-aminopyridine (4-AP), known to have a function of inhibiting various potassium channels in neurons and maintaining neuronal action potential, was added to the neurons cultured for 4 weeks at a final concentration of 100 μM, and then the spikes were measured. As a result, the number of spikes was increased both in the control group and in the fiber sheet group by the addition of 4-aminopyridine, and appropriate drug response was also confirmed (FIG. 7a). […] The cells were cultured in BrainPhys (registered trademark) Neuronal Medium (05792, STEMCELL TECHNOLOGIES) containing 20% ACM in an incubator at 5% CO2 and 37° C. for 2, 4, and 6 weeks. The obtained cell sheet (nerve cell device) was placed on an MEA probe (MED64 system, Alpha MED Scientific Inc.) and made the cells contact with the electrodes of MEA probe to measure neural activity (spikes and bursts). In the measurement system, 4-aminopyridine (4-AP), known to maintain a neural action potential was added at a final concentration of 100 μM to examine the drug response of neurons. MED 64 Burstscope (Alpha MED Scientific Inc.) was used for analyzing neural activity. About the cell sheet obtained by culturing for 4 weeks, the result of analyzing the number of spikes is shown in FIG. 8a, and the result of analyzing the number of synchronous bursts is shown in FIG. 8b. […] Furthermore, the result of analyzing neural activity by raster plots for a cell sheet obtained by culturing for 6 weeks is shown in FIG. 8c.

[3] = seeded at 24×10^5 cells/cm^2 on oriented PLGA fiber sheet, 20% ACM, cultured 4 weeks

Nc1ccncc1 [4-aminopyridine]
increase in the number of spikes ([1]; control group cultured directly on the MEA probe, 4 weeks): 156%
increase in the number of spikes ([1]; fiber sheet group cultured in medium with 20% ACM, 4 weeks): 194%
increase in the number of spikes ([1]; neurons on oriented PLGA fiber sheet (fiber sheet group), cultured 4 weeks): 167%
increase in the number of spikes [2, 3]: 499%
increase in the number of synchronous bursts [2, 3]: 375%
number of spikes and synchronous bursts (raster plots) ([2]; seeded at 24×10^5 cells/cm^2 on oriented PLGA fiber sheet, 20% ACM, cultured 6 weeks): remarkable increase
increase in the number of bursts ([2]; seeded on fiber sheet at 12×10^5 cells/cm^2, cultured 6 weeks in medium with ACM): 2.6 fold

— patent US11543404B2, “Nerve cell device and method for evaluating neural activity” (Stem Cell & Device Laboratory, Inc., priority 2017, dated 2023)
